Literature values in patent US20100120050A1, “Biomarkers For Assessing Altherosclerotic Potential” (ENTELOS, INC., priority 2008, published 2010).

Conditions: clinical trials and post-marketing; cited from earlier work

With `Cc1c(C(=O)NN2CCCCC2)nn(-c2ccc(Cl)cc2Cl)c1-c1ccc(Cl)cc1` [rimonabant] as the compound, how does the “effect on plaque endpoints” value read?
The value was “little observed effect on plaque endpoints”.
